Laboratory results published in patent US5763433A, “Pharmaceutical compositions containing 3-beta-hydroxylated 6,7-substituted steroid derivatives, and use thereof” (Conservatoire National des Arts et Metiers, priority 1992, dated 1998).

Legend:
antiviral response = conditions: 20 mg/kg to 320 mg/kg s.c. or 0.4% by weight of the diet; cited from earlier work
anti-lysozyme IgG = test: Immunoenzymatic measurement of anti-lysozyme IgG in serum of mice immunized against lysozyme; type: in vivo, C57BL/6 mice
Protocol: The immunity effector effect was tested by subcutaneous injection concomitantly with that of an antigen and the 7-alpha- or 7-beta-hydroxylated derivative into C57BL/6 mice according to a standard immunization protocol (Methods in Enzymology (1980), vol. 70).
The effect of the compound as cellular immunity effector is measured by the quantity of circulating IgG directed against the antigen 21 days after the injection and after a booster injection 14 days layer.
Thirty five groups of five 6-weeks old C57BL/6 mice are given a subcutaneous injection of 200 ug of hen egg white lysozyme on days one and fourteen of the immunization protocol. Solutions of DHEA (Sigma D-4500) in dimethyl sulfoxide (DMSO) are injected in the same manner at variable times before the first injection of lysozyme. Amounts ranging from 0.25 and 2 g/kg are used. Ten other groups of 5 mice are given a subcutaneous injection of 6.25 to 50 mg/kg of 7-alpha-hydroxy-DHEA or 7-beta-hydroxy-DHEA dissolved in DMSO at the same time as the first lysozyme injection. Two groups receive only DMSO with lysozyme (controls). The blanks correspond to one group of 5 mice and are not given an injection.
Three weeks after the first injections the animals, then aged 9 weeks, are decapitated. The blood of each animal is collected and the presence of anti-lysozyme G immunoglobulins (IgG) is measured in serial dilutions of the sera by an immunoenzymatic titration using goat anti-mouse (Fc) IgG immunoglobulin labelled with peroxidase.
A group of 5 mice is given the subcutaneous injection of 125 mg/kg of 5-androstene-3-beta, 17-beta-diol (ADIOL) one hour prior to the first injection of lysozyme, and two groups of 5 mice are treated with 25 mg/kg of 7-alpha-hydroxy-ADIOL or 7-beta-hydroxy-ADIOL at the time of the first lysozyme injection.
DHEA or PREG or ADIOL is injected subcutaneously 1 hour before the first lysozyme injection. The 7-hydroxylated derivatives are administered simultaneously with the lysozyme injection. The immunoenzymatic measurement of the anti-lysozyme IgGs in the serial dilutions of the sera of each animal makes use of goat anti-mouse (Fc) IgG immunoglobulin, labelled with peroxidase in 96-well plates treated with lysozyme. The mean value of the optical densities measured in each group of 5 mice is calculated as well as the standard deviation (SD).

C[C@]12CC[C@H]3[C@@H](CC=C4C[C@@H](O)CC[C@@]43C)[C@@H]1CC[C@@H]2O [ADIOL, 5-androstene-3-beta, 17-beta-diol, reference compound]
Antiviral response (antiviral response): enhanced antiviral response | Optical densities +/- SD, anti-lysozyme IgG, 1/180 serial dilution (anti-lysozyme IgG; serum 1/180, s.c., doses and timing as E1, mean of 5 mice): 0,37 ± 0,06 | Optical densities +/- SD, anti-lysozyme IgG, 1/540 serial dilution (anti-lysozyme IgG; serum 1/540, s.c., doses and timing as E1, mean of 5 mice): 0,22 ± 0,03 | Optical densities +/- SD, anti-lysozyme IgG, first serial dilution (anti-lysozyme IgG; serum dilution not given, s.c., PREG 0,5 g/kg, DHEA 1,0 g/kg, ADIOL 125 mg/kg 1 hour before lysozyme, 7-hydroxy-PREG and 7-hydroxy-DHEA 6,25 mg/kg, 7β-hydroxy-DHEA 50,0 mg/kg, 7- and 7β-hydroxy-ADIOL 25,0 mg/kg with lysozyme, mean of 5 mice): 0,26 ± 0,09 | Effect on serum concentrations of anti-lysozyme IgG (in words) (anti-lysozyme IgG; steroid administered s.c. at least one hour prior to the injection of lysozyme): increase the serum concentrations of anti-lysozyme IgG
